Values quoted from earlier work as cited in US20070293937A1, “Endoluminal medical device for local delivery of cathepsin inhibitors, method of making and treating” (MED Institute, Inc., priority 2006, published 2007).
Where a SMILES comes first, the peptide text is derived from it. The star is where a group is joined. CHN2 = [N-]=[N+]=C*

What was measured:
cathepsin C [1] = target: cathepsin C (Homo sapiens, UniProt P53634); conditions: natural inhibitors
cathepsin C [2] = conditions: Tompson et al.
cathepsin C [3] = conditions: Green and Shaw, J. Biol. Chem. 1981
purified cathepsin C = conditions: as found by Kam et al.

cathepsin C (Homo sapiens, UniProt P53634), sequence (P53634 25-463, species assumed): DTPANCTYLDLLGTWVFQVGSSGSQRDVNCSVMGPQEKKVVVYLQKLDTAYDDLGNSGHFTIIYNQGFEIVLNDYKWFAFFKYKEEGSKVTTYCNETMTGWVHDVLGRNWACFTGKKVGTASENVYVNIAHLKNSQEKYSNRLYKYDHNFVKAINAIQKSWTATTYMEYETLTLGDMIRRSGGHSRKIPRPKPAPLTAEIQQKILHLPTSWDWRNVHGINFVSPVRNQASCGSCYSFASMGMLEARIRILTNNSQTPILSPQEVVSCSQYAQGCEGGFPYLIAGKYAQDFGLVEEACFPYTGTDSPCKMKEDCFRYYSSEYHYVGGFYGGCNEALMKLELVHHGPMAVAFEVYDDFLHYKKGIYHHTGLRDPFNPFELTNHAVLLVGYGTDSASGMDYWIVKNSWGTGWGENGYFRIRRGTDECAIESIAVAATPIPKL

## CC(C)C[C@H](NC(=O)[C@H]1O[C@@H]1C(=O)O)C(=O)NCCCCN=C(N)N [Compound E-64, E-64]
Cathepsin C [1]
  inhibition of cathepsin C (in words): inhibit cathepsin C at high inhibitor concentrations

## N#CC(Cc1ccccc1)NC(=O)CN (stereo not shown) [Gly-NHCH(CH2Ph)CN]
Cathepsin C [2]; reversible nitrile inhibitor, J. Med. Chem. 1986, read-out: Kl value
  Ki: 2.7 µM

## [N-]=[N+]=CC(=O)[C@H](Cc1ccccc1)NC(=O)CN [Gly-Phe-CHN2] (H-Gly-Phe-CHN2)
Cathepsin C [3]
  kobs/[l]: 10^4 M^−1 s^−1
Purified cathepsin C
  inhibition of cathepsin C (in words): potent inhibitor

## CS(=O)(=O)C=CC(Cc1ccccc1)NC(=O)CN (stereo not drawn) [Gly-Phe-VS—CH3]
Cathepsin C [2]; J. Med. Chem. 1986
  k2/Kl: 56 M⁻¹ s⁻¹

## CC(=O)N[C@@H](CC(C)C)C(=O)N[C@@H](CC(C)C)C(=O)N[C@H](C=O)CCCNC(=N)N [leupeptin]
Cathepsin C [1]
  inhibition of cathepsin C (in words): inhibit cathepsin C at high inhibitor concentrations

## cystatin
Cathepsin C [1]
  inhibition of cathepsin C (in words): inhibit cathepsin C at high inhibitor concentrations
